The text below walks through data of paper PMC10251479, “PROTAC-Induced Glycogen Synthase Kinase 3β Degradation as a Potential Therapeutic Strategy for Alzheimer’s Disease” (ACS Chemical Neuroscience, 2023).

Some results are limits rather than exact numbers.

For assay [1], the system named is SH-SY5Y cells. The assay is described as follows: Neuroprotective effects against CuSO4 in SH-SY5Y cells (MTT). Conditions: 24 h, CuSO4 150 μM. The assay is classed as cell-based, human. As to the method:
SH-SY5Y cells were seeded in a 96-well plate at 2 × 10^4 cells/well, incubated for 24 h and then […]
presence of CuSO4 (150 µM) at 37 °C in 5 % CO2. Cells were also treated with compound 1 (1 µM) for 24 h in the presence of lactacystin (5 µM). At the end of the treatment, the cell viability, in terms of mitochondrial metabolic function, was evaluated by the reduction of 3-(4,5-dimethyl-2-thiazolyl)- 2,5-diphenyl-2H-tetrazolium bromide (MTT) to its insoluble formazan. Briefly, the treatment was replaced with MTT in HBSS [0.5 mg/mL] for 2 h at 37°C in 5% CO2. After washing with HBSS, formazan crystals were dissolved in isopropanol. The amount of formazan was measured (570 nm, reference filter 690 nm) using a multilabel plate reader (VICTOR™ X3, PerkinElmer, Waltham, MA, USA).[10] Data are reported as mean ± SEM of three independent experiments. The neurotoxicity was expressed as a percentage of control cells and calculated by the formula: 100 – ((absorbance of treated

Assay [2] deals with SH-SY5Y cells. The assay is described as follows: Neuroprotective effects against Aβ25-35 peptide in SH-SY5Y cells (MTT). Format: cell-based, human. Conditions: 0.5 and 1 μM for 2 h, then 3 h with Aβ25–35 10 μM. On the procedure:
Data are reported as mean ± SEM of three independent experiments. […]
measured (570 nm, reference filter 690 nm) using a multilabel plate reader (VICTOR™ X3, PerkinElmer, Waltham, MA, USA).[11] Data are reported as mean ± SEM of three independent experiments. The neurotoxicity was expressed as a percentage of control cells and calculated by the formula: 100 – ((absorbance of treated neurons/absorbance of untreated neurons) × 100). […]
analysis was performed using one-way ANOVA with the Dunnett post hoc test. Differences were considered significant at p < 0.05. Analyses were performed using GraphPad PRISM software (version 5.0; GraphPad Software, La Jolla, CA, USA) on a Windows platform.
11. PAMPA BBB permeation studies.
Prediction of the brain penetration was evaluated using a parallel artificial membrane permeability assay (PAMPA).[12] Ten commercial drugs, PBS at pH 7.4, EtOH, and dodecane were purchased from Sigma- Aldrich, Acros organics, Merck, and Fluka. The porcine polar brain lipid (PBL) was from Avanti Polar Lipids. The donor plate was a 96-well filtrate plate (Multiscreen® IP Sterile Plate PDVF […]
both from Millipore. Filter PDVF membrane units (diameter 30 mm, pore size 0.45 µm) from Symta were used to filter the samples. A 96-well plate UV reader (Biteck Instruments, Synergy H4 Hibrid Reader) was used for the UV measurements.
12 mg of promazine) were dissolved in 1 mL of EtOH. […]

Assay [3] concerns the target T1, GSK-3β protein (Homo sapiens, UniProt P49841). The assay is described as follows: GSK-3β degradation by Western blotting in SH-SY5Y cells. Format: cell-based. Details: endogenous in cells; host or cells: SH-SY5Y. On the procedure: Determination of GSK-3β degradation by Western Blotting
At the end of incubation, cells were trypsinized and the cellular pellet was resuspended in complete lysis buffer containing leupeptin (2 µg/mL, Sigma-Aldrich), phenylmethylsulfonyl fluoride (PMSF, 100 µg/mL, Sigma-Aldrich) and a cocktail of protease/phosphatase inhibitors (100×). The protein concentration was determined using the Bradford method (Bio-Rad Laboratories Srl, Hercules, CA, USA). The protein lysates (50 µg per […]
polyacrylamide gels, Bio-Rad Laboratories SrL) and electroblotted onto 0.45 µm nitrocellulose membranes. Membranes were incubated overnight at 4 °C with primary antibody recognizing GSK-3β (1:1000, Cell Signaling Technologies Inc, Danvers, MA, USA). Membranes were then washed with TRIS-buffered saline-T (TBS + 0.05% Tween20), and then incubated with horseradish peroxidase (POD) linked anti-rabbit secondary antibody (1:2000, GE Healthcare, Chicago, IL, USA).
Immunoreactive bands were visualized by enhanced chemiluminescence (ECL, Bio-Rad Laboratories Srl). The same membranes were stripped and reprobed with anti β-actin (1:1000, Sigma-Aldrich). Data were normalized on the β-actin bands and analyzed by densitometry, using the Quantity One software (Bio-Rad Laboratories Srl).[9] […]
On the technique in general: In western blotting, separated proteins are transferred to a membrane and probed.

Assay [4] concerns the target T1, GSK-3β protein. The assay is described as follows: GSK-3β inhibition in vitro assay (Kinase-Glo luminescent). The assay is classed as biochemical. Set-up: purchased Millipore (Millipore Iberica S.A.U.). As to conditions: ATP 1 μM, GSM substrate 25 μM, 30 min at 37 °C; mean of at least two determinations in duplicate; read-out: IC50 ± SEM, GSK-3β activity. From the text:
N-(2-(2-(2-((2-(2,6-dioxopiperidin-3-yl)-1,3-dioxoisoindolin-4-yl)amino)ethoxy)ethoxy)ethyl)- 4-((2-(naphthalen-1-yl)-3,5-dioxo-1,2,4-thiadiazolidin-4-yl)methyl)benzamide (4). Synthesized […]
GSK-3β inhibition in vitro assay. Human recombinant GSK-3β, prephosphorylated polypeptide substrate and white 96-well plates were purchased from Millipore (Millipore Iberica S.A.U.). Kinase-Glo Luminescent Kinase Assay was obtained from Promega (Promega Biotech Iberica, SL).
Adenosinetriphosphate (ATP) and all other reagents were from Sigma-Aldrich. Assay buffer contained 50 mM 4-(2-hydroxyethyl)-1- piperazineethanesulfonic acid (HEPES) (pH 7.5), 1 mM ethylenediaminetetraacetic acid (EDTA), 1 mM ethylene glycol tetraacetic acid (EGTA), and 15 mM magnesium acetate. The in solution experiments for GSK-3β inhibition analysis were performed by following the method developed by Baki et al.[1] In a typical assay, 10 μL of test compound (dissolved […]
in DMSO at 1 mM concentration and diluted in advance in assay buffer to the desired concentration) and 10 μL (20 ng) of enzyme were added to each well in presence of 20 μL of assay buffer containing […]
After a 30 min incubation time at 37 °C, the enzymatic reaction was stopped by adding 40 μL of Kinase-Glo reagent. Glow-type luminescence was recorded after 10 min using a Victorx3 (PerkinElmer Waltham, MA, USA) plate […]
inhibitory activities were calculated based on maximal kinase (average positive) and luciferase activities (average negative) measured in the absence of inhibitor and in the presence of reference […]
μM), respectively. The linear regression parameters were determined and the IC 50 extrapolated by GraphPad software (version 5.0; GraphPad Software, La Jolla, CA, USA).

T1 sequence (P49841 whole entry): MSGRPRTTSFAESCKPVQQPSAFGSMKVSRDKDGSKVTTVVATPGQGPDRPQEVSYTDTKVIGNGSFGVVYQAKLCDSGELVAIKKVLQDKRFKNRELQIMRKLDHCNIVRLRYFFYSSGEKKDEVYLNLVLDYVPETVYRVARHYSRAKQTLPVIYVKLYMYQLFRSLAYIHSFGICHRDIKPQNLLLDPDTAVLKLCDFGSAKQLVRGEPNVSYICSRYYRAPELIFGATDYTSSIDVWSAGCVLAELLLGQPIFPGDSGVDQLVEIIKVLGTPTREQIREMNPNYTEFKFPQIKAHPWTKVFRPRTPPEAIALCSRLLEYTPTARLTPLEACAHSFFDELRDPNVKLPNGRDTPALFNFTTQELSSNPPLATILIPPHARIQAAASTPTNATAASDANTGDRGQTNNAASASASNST

What is called DC50 is the concentration giving 50% degradation. For orientation: IC50 means the concentration that gives 50% inhibition. In the case of `O=C(Cn1cc(C2=C(c3ccc(Cl)cc3Cl)C(=O)NC2=O)c2ccccc21)NCCCOCCCCOCCCNc1cccc2c1C(=O)N(C1CCC(=O)NC1=O)C2=O` (stereo not drawn) [Compound 1], the “neurotoxicity induced by CuSO4” value in the assay on SH-SY5Y cells [1] (1 μM, MTT) was “significantly counteracted the neurotoxicity induced by CuSO4”. For the same compound, the “neuroprotective effect against CuSO4 in the presence of lactacystin” value with SH-SY5Y cells [1] (lactacystin 5 μM) is recorded as “abolished by lactacystin”. In the assay on SH-SY5Y cells [2], the “neurotoxicity induced by Aβ25–35 peptide” value was “markedly reduced the neurotoxicity induced by Aβ25–35 peptide”. In addition, the “total GSK-3β protein level” value on GSK-3β protein [3] (10 μM, 48 h, Western blotting) is reported as “significantly decreased the total level of GSK-3β protein”. Moreover, at GSK-3β protein [3] (48 h, 0.5, 1, 5 and 10 μM, read-out: half-maximal degradation (DC50)), the DC50 turned out to be 6.22 µM. The “GSK-3β protein level, dose dependence” value on GSK-3β protein [3] (48 h at 0.5, 1, 5 and 10 μM) was “significantly decreased GSK-3β protein level at all tested concentrations in a dose-dependent manner”. The “total GSK-3β protein level in the presence of lactacystin” value on GSK-3β protein [3] (compound 10 μM, 24 h, lactacystin 5 μM) is given as “had no effect on the total GSK-3β protein level”. The “concentration from which GSK-3β is degraded” value on GSK-3β protein [3] (dose-dependent) is ≥ 0.5 µM. For the same compound, the IC50 at GSK-3β protein [4] came to 0.833 ± 0.062 µM.
